# Data taken from article PMC3502291, “Identification of Small Molecule Inhibitors of PTPσ through an Integrative Virtual and Biochemical Approach” (PLoS ONE, 2012).
# Legend:
# Format in all cases: biochemical
# [1] = target: T1, PTPσ (Homo sapiens, UniProt Q13332); test: pNPP phosphatase assay with purified GST-PTPσ, dose-response, with and without catalase
# T1 construct: gene PTPRS; GST-tagged recombinant PTPσ, all residues C-terminal to the transmembrane domain (BC104812 cDNA; aa 883-1501)
# T1 sequence (Q13332 1330-1948): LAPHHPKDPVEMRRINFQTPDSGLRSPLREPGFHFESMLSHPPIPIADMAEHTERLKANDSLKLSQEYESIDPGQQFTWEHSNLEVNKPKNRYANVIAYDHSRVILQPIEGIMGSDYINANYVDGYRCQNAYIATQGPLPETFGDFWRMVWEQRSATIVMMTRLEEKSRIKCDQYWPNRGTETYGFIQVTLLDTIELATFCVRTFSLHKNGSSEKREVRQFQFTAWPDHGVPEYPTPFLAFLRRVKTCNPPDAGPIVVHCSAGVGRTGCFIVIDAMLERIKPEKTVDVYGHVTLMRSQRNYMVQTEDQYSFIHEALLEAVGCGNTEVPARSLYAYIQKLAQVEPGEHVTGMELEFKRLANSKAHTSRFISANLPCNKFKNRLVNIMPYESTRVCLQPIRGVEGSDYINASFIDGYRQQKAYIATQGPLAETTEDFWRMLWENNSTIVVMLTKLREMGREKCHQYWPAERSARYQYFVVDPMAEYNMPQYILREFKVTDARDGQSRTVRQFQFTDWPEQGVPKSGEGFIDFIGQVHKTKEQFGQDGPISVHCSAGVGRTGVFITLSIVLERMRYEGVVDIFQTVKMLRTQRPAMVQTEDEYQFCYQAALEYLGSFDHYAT
# [2] = target: T1, PTPσ; test: pNPP phosphatase assay with purified GST-PTPσ, positive control
# [3] = target: T1, PTPσ; test: Km from initial velocities of dephosphorylation ([…] nm absorbance)
compound,measurement,setting,value
"O=C(C=CNc1cc([N+](=O)[O-])ccc1O)c1ccc(Cl)c(Cl)c1 [compound 36, 1-(3,4-dichlorophenyl)-3-[(2-hydroxy-5-nitrophenyl)amino]-2-propen-1-one]",IC50,[1],10 µM
"[O]=[V]([OH])([OH])[OH] [Na3VO4, sodium orthovanadate]","pNPP phosphatase assay with purified GST-PTPσ, positive control",[2],Sodium orthovanadate (Na3VO4) is a pan inhibitor of PTPs and was included as a positive control
para-nitrophenyl phosphate [pNPP],Km,[3],250 µM
